EPA's ToxValDB 9.5 (doi:10.2903/j.efsa.2007.105r)
≈ marks a conversion by molar mass, not a printed value.

Key:
Anas platyrhynchos = details: reproductive
Apis mellifera = details: acute; duration: 48 hours; dermal; mortality
Bibionidae = details: chronic/long-term; duration: 28 days
Colinus virginianus = details: acute, mortality
Daphnia magna = details: chronic/long-term; duration: 21 days; reproduction
Aphidius rhopalosiphi = assay: LR50; higher = less toxic; details: acute; duration: 48 hours; mortality

For `Cc1cc(C)c(C2=C(OC(=O)CC(C)(C)C)C3(CCCC3)OC2=O)c(C)c1` [Spiromesifen], the NOEC (Anas platyrhynchos) was 229 mg/kg, the LC50 (Anas platyrhynchos; mortality) was > 5000 mg/kg and the LD50 (Apis mellifera) was > 200 µg/piece. The NOEC (Bibionidae) was 0.032 mg/L, the LC50 (Colinus virginianus) was > 5000 mg/kg and the LD50 (Colinus virginianus) was > 1160 mg/kg. For the same compound, the LD50 (Colinus virginianus; oral, diet) was > 2000 mg/kg, the NOEC (Daphnia magna) was 0.00025 mg/L and the NOAEL (Mus musculus; chronic, duration: 18 months) was 3 mg/kg-day. The NOAEL (Mus musculus; subchronic, duration: 90 days, oral, clinical chemistry) was 3 mg/kg-day, the LC50 (Oncorhynchus mykiss; acute, duration: 96 hours, mortality) was 0.016 µg/mL (≈ 0.0432 µM) and the NOEC (Oncorhynchus mykiss; chronic/long-term, duration: 97 days, time to swim up) was 0.00473 mg/L. For the same compound, the NOAEL (Rattus norvegicus; acute) was 200 mg/kg-day, the LD50 (Rattus norvegicus; acute, oral, mortality) was > 2500 mg/kg and the NOEC (Rattus norvegicus; chronic) was 30 mg/kg-day. The LC50 (Tagia sp.; acute, duration: 14 days, mortality) was > 1000 mg/kg, the NOEC (Tagia sp.; chronic/long-term, duration: 56 days, reproduction) was 4.32 mg/kg and the LR50 (Aphidius rhopalosiphi) was 40.6 mL/ha.
